The target in assay [1] is T1, hDHFR (Homo sapiens, UniProt P00374).
T1 construct: purchased Sigma CS0340
T1 sequence (P00374 1-187): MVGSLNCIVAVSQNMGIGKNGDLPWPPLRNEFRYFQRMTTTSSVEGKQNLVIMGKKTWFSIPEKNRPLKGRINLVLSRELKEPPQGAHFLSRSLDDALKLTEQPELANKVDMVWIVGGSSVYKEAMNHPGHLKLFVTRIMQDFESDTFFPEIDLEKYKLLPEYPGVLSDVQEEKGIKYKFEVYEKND
Kind of assay: In vitro DHFR inhibition assay (DHFR assay kit, absorbance at 340 nm). The format is biochemical. As to the method: The activity of the designed peptides against hDHFR was evaluated by measuring the conversion of dihydrofolic acid to tetrahydrofolic acid in the presence of the test peptide using […].
The dihydrofolate reductase inhibition assay was performed using DHFR assay kit (Sigma product code CS0340) according to the reported protocol. All the dilutions were made in assay buffer, pH 7.5. 10 mM stock solutions of dihydrofolic acid and NADPH in assay buffer were prepared. Stock solutions of the test peptides with different concentrations were prepared in DMSO, and an amount of 20 μL of each was taken to attain final concentration of 10^−9, 10^−8, 10^−7, 10^−6, 10^−5, and 10^−4 M in the respective wells of 96-well plate containing assay buffer. An amount of 0.1 unit of DHFR as supplied in the kit was diluted, and an amount of 20 μL of its 3 × 10^−3 unit was used in each reaction. Each well of the 96-well plate was charged with 157.8 μL of assay buffer. […] Percentage inhibition of enzymatic activity was calculated after nullifying the effects of NADPH, folate, and solvent. IC50 was calculated by plotting a graph between percentage inhibition and the corresponding concentration of the peptide.

The target in assay [2] is T1, hDHFR. Kind of assay: Isothermal titration calorimetry (ITC). It is filed as binding. As to conditions: Table 2, read-out: Ka (converted). The source says: The binding of peptide 2 with hDHFR was further determined using isothermal titration calorimetry (ITC). ITC is considered as one of the most precise techniques to measure the affinity between a macromolecule and a small molecule. Since it measures the heat absorbed or released during complexation, it allows simultaneous determination of all binding parameters with respect to the binding constant (K), enthalpy (ΔH), and entropy (ΔS) in a single experiment. The solution of peptide 2 (in the syringe) was injected into the DHFR enzyme solution taken in the sample cell. In one experiment, 20 consecutive injections of 2 μL of 250 μM peptide were given to the sample cell. Upon each titration, the amount of heat released or absorbed was measured and used to determine the association constant (Ka), binding enthalpy (ΔH), and entropy (ΔS).

The test system of assay [3] is A549 cells. As to conditions: 48 hrs, MTT; for effect on cell viability of A549 cells: increasing concentrations.
Experimental: Cell viability was measured using 3-(4,5-Dimethylthiazol- 2-yl)-2,5- Diphenyltetrazolium Bromide (MTT) assay. […] Following that, 20 µL of 5 mg/ml of MTT reagent was added in a total volume of 200 µl and incubated for 2 hours. The culture media was removed and the formazan crystals so formed were dissolved in 200 µl of dimethyl sulfoxide (DMSO). Absorbance was measured at 570 nm (with 660 nm reference wavelength) using Tecan plate reader (Infinite M200 Pro). Each individual experiment was repeated at least thrice. Relative cell viability was expressed as a percentage relative to untreated control cells.
Where [4] appears, read: six concentrations 10^−4 to 10^−9 M, assay buffer pH 7.5, read-out: IC50 against hDHFR.

The structures appear in SMILES notation. In brackets after ≈: the same amount, converted by molar mass. Like-named read-outs stand apart in the source and are kept apart here. Residues, ends and D or L forms follow the SMILES beside them.

Usually IC50 stands for the concentration that inhibits the measured activity by half. As for `CSCC[C@H](NC(=O)[C@H](Cc1ccccc1)NC(=O)[C@@H](N)Cc1ccc(O)cc1)C(=O)N[C@@H](CC(C)C)C(=O)O` [Peptide 1, Tyr-Phe-Met-Leu] (H-YFML-OH; N-terminus assumed), the half-maximal inhibitory concentration (IC50) in assay [1] was more than 100 µM. Take `CSCC[C@H](NC(=O)[C@@H](N)Cc1ccccc1)C(=O)N[C@@H](Cc1ccc(O)cc1)C(=O)N[C@@H](CC(C)C)C(=O)O` [Peptide 2, Phe-Met-Tyr-Leu] (H-FMYL-OH): the Kd in assay [2] is 0.909 µM. The IC50 in assay [1] (setting [4]) was determined as 0.13 µM; in assay [3] (read-out: IC50 in A549 cells) it was 82 µM. For the same compound, the “IC50 in A549 cells” value in assay [3] was determined as 47 µg/mL (≈ 82.1 µM). Consider `CSCC[C@H](NC(=O)[C@H](Cc1ccc(O)cc1)NC(=O)[C@@H](N)Cc1ccccc1)C(=O)NCC(=O)O` [Peptide 3, Phe-Tyr-Met-Gly] (H-FYMG-OH; N-terminus assumed), for which the IC50 in assay [1] (setting [4]) is 5.6 µM. In addition, the “effect on cell viability of A549 cells” value in assay [3] was “did not affect their cell viability”. Turning to `CSCC[C@H](N)C(=O)N[C@@H](Cc1ccccc1)C(=O)N[C@@H](Cc1ccc(O)cc1)C(=O)NCC(=O)O` [Peptide 4, Met-Phe-Tyr-Gly] (H-MFYG-OH; N-terminus assumed), in assay [1] (setting [4]), the IC50 is more than 90 µM. Moreover, the “effect on cell viability of A549 cells” value in assay [3] was “did not affect their cell viability”. As for `CSCC[C@H](NC(=O)[C@@H](N)Cc1ccc(O)cc1)C(=O)N[C@@H](CO)C(=O)N[C@@H](CC(C)C)C(=O)O` [Peptide 5, Tyr-Met-Ser-Leu] (H-YMSL-OH; N-terminus assumed), in assay [1], the IC50 was more than 100 µM. On to `CSCC[C@H](N)C(=O)N[C@@H](Cc1ccc(O)cc1)C(=O)N[C@@H](CO)C(=O)N[C@@H](CC(C)C)C(=O)O` [Peptide 6, Met-Tyr-Ser-Leu] (H-MYSL-OH; N-terminus assumed), for which the IC50 in assay [1] (setting [4]) stood at 8 µM.

With `CSCC[C@H](NC(=O)[C@H](Cc1ccccc1)NC(=O)[C@@H](N)Cc1ccc(O)cc1)C(=O)N[C@@H](CC(C)C)C(=O)NCC(=O)O` [Peptide 7, Tyr-Phe-Met-Leu-Gly] (H-YFMLG-OH), in assay [1], the IC50 was more than 100 µM. Turning to `CSCC[C@H](NC(=O)[C@@H](N)Cc1ccccc1)C(=O)N[C@@H](Cc1ccc(O)cc1)C(=O)N[C@@H](CC(C)C)C(=O)NCC(=O)O` [Peptide 8, Phe-Met-Tyr-Leu-Gly] (H-FMYLG-OH), in assay [1] (setting [4]), the IC50 is more than 100 µM. `CSCC[C@H](NC(=O)[C@H](Cc1ccc(O)cc1)NC(=O)[C@@H](N)Cc1ccccc1)C(=O)NCC(=O)N[C@@H](CC(C)C)C(=O)O` [Peptide 9, Phe-Tyr-Met-Gly-Leu] (H-FYMGL-OH) had an IC50 in assay [1] of more than 80 µM. In the case of `CSCC[C@H](N)C(=O)N[C@@H](Cc1ccccc1)C(=O)N[C@@H](Cc1ccc(O)cc1)C(=O)NCC(=O)N[C@@H](CC(C)C)C(=O)O` [Peptide 10, Met-Phe-Tyr-Gly-Leu] (H-MFYGL-OH), the IC50 in assay [1] (setting [4]) was more than 100 µM. `CSCC[C@H](NC(=O)[C@H](Cc1ccccc1)NC(=O)[C@H](CO)NC(=O)[C@@H](N)Cc1ccc(O)cc1)C(=O)N[C@@H](CC(C)C)C(=O)O` [Peptide 11, Tyr-Ser-Phe-Met-Leu] (H-YSFML-OH) registered an IC50 in assay [1] of 0.08 µM. `CSCC[C@H](NC(=O)[C@@H](N)Cc1ccc(O)cc1)C(=O)N[C@@H](Cc1ccccc1)C(=O)N[C@@H](CO)C(=O)N[C@@H](CC(C)C)C(=O)O` [Peptide 12, Tyr-Met-Phe-Ser-Leu] (H-YMFSL-OH) had an IC50 in assay [1] of more than 90 µM.

Values taken from publication PMC5816602, “Optimized peptide based inhibitors targeting the dihydrofolate reductase pathway in cancer” (Scientific Reports, 2018).
